The source of these data is PubChem BioAssay AID1259411 (Chemical Carcinogenesis Research Information System (CCRIS), 2018).

The data set concerns rodent carcinogenicity bioassays, tumor incidence. The experiment in a line: CCRIS carcinogenicity studies. An outline of the steps:
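Archive of carcinogenicity, mutagenicity, tumor promotion and tumor inhibition results drawn from journals, NCI reports and other sources, expert-reviewed; covers 1985-2011 and is no longer updated.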

Activity calls are given as the source filed them. No rule for the calls is given here.

Consider `Nc1ccc(S(=O)(=O)c2ccc(N)cc2)cc1`, for which the carcinogen call runs as follows: (Species: MOUSE, Strain/Sex: B6C3F1/FEMALE, Route: ORAL, Dose: 0, 500, 1000 PPM IN DIET FOR 78 WK (STUDY DURATION: 105-108 WK), Dose: 0, 500, 1000 PPM IN DIET FOR 78 WK (STUDY DURATION: 105-108 WK)) “inactive; negative”; (Species: MOUSE, Strain/Sex: B6C3F1/MALE, Route: ORAL, Dose: 0, 500, 1000 PPM IN DIET FOR 78 WK (STUDY DURATION: 105-106 WK), Dose: 0, 500, 1000 PPM IN DIET FOR 78 WK (STUDY DURATION: 105-106 WK)) “inactive; negative”; (Species: RAT, Strain/Sex: BDIV/MALE,FEMALE, Route: GAVAGE, Dose: 100 MG/KG TO MOTHERS DURING PREGNANCY AND DURING WEANING, 52 G/KG (TOTAL DOSE) TO OFFSPRING AFTER WEANING, Tumor Site: Type of Lesion: THYROID GLAND: MALIGNANT C CELL TUMOR) “active; positive”; (Species: RAT, Strain/Sex: F344/FEMALE, Route: ORAL, Dose: 0, 600, 1200 PPM IN DIET FOR 78 WK (STUDY DURATION: 105-106 WK), Dose: 0, 600, 1200 PPM IN DIET FOR 78 WK (STUDY DURATION: 105-106 WK)) “inactive; negative”; (Species: RAT, Strain/Sex: F344/FEMALE, Route: ORAL, Dose: 0, 600, 1200 PPM IN DIET FOR 78 WK (STUDY DURATION: 105 WK), Dose: 0, 600, 1200 PPM IN DIET FOR 78 WK (STUDY DURATION: 105 WK)) “inactive; negative”; (Species: RAT, Strain/Sex: F344/MALE, Route: ORAL, Dose: 0, 600, 1200 PPM IN DIET FOR 78 WK (STUDY DURATION: 104-106 WK), Dose: 0, 600, 1200 PPM IN DIET FOR 78 WK (STUDY DURATION: 104-106 WK), Tumor Site: Type of Lesion: SPLEEN: FIBROMA OR FIBROSARCOMA OR SARCOMA (NOS), PERITONEAL CAVITY: FIBROSARCOMA, SARCOMA (NOS)) “active; positive”. Also, the carcinogen call by setting is: (Species: RAT, Strain/Sex: F344/MALE, Route: ORAL, Dose: 0, 600, 1200 PPM IN DIET FOR 78 WK (STUDY DURATION: 105 WK), Dose: 0, 600, 1200 PPM IN DIET FOR 78 WK (STUDY DURATION: 105 WK), Tumor Site: Type of Lesion: SPLEEN OR PERITONEUM: SARCOMA) “active; positive”; (Species: RAT, Strain/Sex: WISTAR/MALE, Route: ORAL, Dose: 0.025% INCREASED TO 0.3% BY THIRD MO, Tumor Site: Type of Lesion: MULTIPLE SITES) “active; positive”.
As to `c1ccc2c(c1)ccc1cc3ccc4c(c3nc12)[C@H]1O[C@H]1CC4`, the carcinogen call (Species: MOUSE, Strain/Sex: CD-1/FEMALE, Route: INTRAPERITONEAL, Dose: 0, 28 NMOL (TOTAL DOSE) ADMINISTERED AS 1/7 OF DOSE WITHIN 24 HR AFTER BIRTH, 2/7 OF DOSE AT 8 D OLD, 4/7 OF DOSE AT 15, Tumor Site: Type of Lesion: LUNG: TUMOR) is “active; positive” and the carcinogen call (Species: MOUSE, Strain/Sex: CD-1/MALE, Route: INTRAPERITONEAL, Dose: 0, 28 NMOL (TOTAL DOSE) ADMINISTERED AS 1/7 OF DOSE WITHIN 24 HR AFTER BIRTH, 2/7 OF DOSE AT 8 D OLD, 4/7 OF DOSE AT 15, Tumor Site: Type of Lesion: LIVER: TUMOR, LUNG: TUMOR) is “active; positive”.
As to `CCBr`, the carcinogen call was “active; positive” (Species: MOUSE, Strain/Sex: B6C3F1/FEMALE, Route: INHALATION, Dose: 0, 100, 200, 400 PPM 6 HR/D 5 D/WK FOR 103 WK (STUDY DURATION: 105 WK), Dose: 0, 100, 200, 400 PPM 6 HR/D 5 D/WK FOR 103 WK (STUDY DURATION: 105 WK), Tumor Site: Type of Lesion: UTERUS: ADENOMA, ADENOCARCINOMA, ADENOMA OR ADENOCARCINOMA, ADENOCARCINOMA OR SQUAMOUS CELL CARCINOMA); “equivocal” (Species: MOUSE, Strain/Sex: B6C3F1/MALE, Route: INHALATION, Dose: 0, 100, 200, 400 PPM 6 HR/D 5 D/WK FOR 104 WK (STUDY DURATION: 106 WK), Dose: 0, 100, 200, 400 PPM 6 HR/D 5 D/WK FOR 104 WK (STUDY DURATION: 106 WK), Tumor Site: Type of Lesion: LUNG: ALVEOLAR/BRONCHIOLAR ADENOMA OR CARCINOMA); “equivocal” (Species: RAT, Strain/Sex: F344/FEMALE, Route: INHALATION, Dose: 0, 100, 200, 400 PPM 6 HR/D 5 D/WK FOR 104 WK (STUDY DURATION: 106 WK), Dose: 0, 100, 200, 400 PPM 6 HR/D 5 D/WK FOR 104 WK (STUDY DURATION: 106 WK), Tumor Site: Type of Lesion: BRAIN: GLIOMA, LUNG: ALVEOLAR/BRONCHIOLAR ADENOMA); “active; positive” (Species: RAT, Strain/Sex: F344/MALE, Route: INHALATION, Dose: 0, 100, 200, 400 PPM 6 HR/D 5 D/WK FOR 104 WK (STUDY DURATION: 106 WK), Dose: 0, 100, 200, 400 PPM 6 HR/D 5 D/WK FOR 104 WK (STUDY DURATION: 106 WK), Tumor Site: Type of Lesion: ADRENAL MEDULLA: PHEOCHROMOCYTOMA, PHEOCHROMOCYTOMA OR MALIGNANT PHEOCHROMOCYTOMA).
As for `O[C@H]1[C@H]2O[C@H]2c2c(ccc3cc4ccc5ccccc5c4nc23)[C@@H]1O`, the carcinogen call reads like this: (Species: MOUSE, Strain/Sex: CD-1/FEMALE, Route: INTRAPERITONEAL, Dose: 0, 28 NMOL (TOTAL DOSE) ADMINISTERED AS 1/7 OF DOSE WITHIN 24 HR AFTER BIRTH, 2/7 OF DOSE AT 8 D OLD, 4/7 OF DOSE AT 15) “inactive; negative”; (Species: MOUSE, Strain/Sex: CD-1/FEMALE, Route: INTRAPERITONEAL, Dose: 0, 175 NMOL (TOTAL DOSE) ADMINISTERED AS 1/7 OF DOSE WITHIN 24 HR AFTER BIRTH, 2/7 OF DOSE AT 8 D OLD, 4/7 OF DOSE AT 15) “inactive; negative”; (Species: MOUSE, Strain/Sex: CD-1/MALE, Route: INTRAPERITONEAL, Dose: 0, 28 NMOL (TOTAL DOSE) ADMINISTERED AS 1/7 OF DOSE WITHIN 24 HR AFTER BIRTH, 2/7 OF DOSE AT 8 D OLD, 4/7 OF DOSE AT 15) “inactive; negative”; (Species: MOUSE, Strain/Sex: CD-1/MALE, Route: INTRAPERITONEAL, Dose: 0, 175 NMOL (TOTAL DOSE) ADMINISTERED AS 1/7 OF DOSE WITHIN 24 HR AFTER BIRTH, 2/7 OF DOSE AT 8 D OLD, 4/7 OF DOSE AT 15) “inactive; negative”.
As to `C[C@]12CC[C@H]3C(=CCc4cc(OS(=O)(=O)O)ccc43)[C@@H]1CCC2=O`, under “Species: HAMSTER, Strain/Sex: SYRIAN/MALE, Route: SUBCUTANEOUS IMPLANT, Dose: 0, 20 MG IN PELLETS IMPLANTED EVERY 2.5 MO FOR 9 MO (STUDY DURATION: 9 MO), Tumor Site: Type of Lesion: KIDNEY: TUMOR”, the carcinogen call is “active; positive”.
Regarding `O=NN1CCCCC1`, the carcinogen call is “active; positive” (Species: HAMSTER, Route: SUBCUTANEOUS, Tumor Site: Type of Lesion: TRACHEA, NASAL CAVITY, ESOPHAGUS, FORESTOMACH, LUNG, LIVER, Tumor Site: Type of Lesion: TRACHEA, NASAL CAVITY, ESOPHAGUS, FORESTOMACH, LUNG, LIVER); “active; positive” (Species: HAMSTER, Strain/Sex: SYRIAN/MALE,FEMALE, Route: ORAL, Dose: 0.006, 0.025, 0.05% IN DRINKING WATER FOR LIFE, Dose: 0.006, 0.025, 0.05% IN DRINKING WATER FOR LIFE, Tumor Site: Type of Lesion: RESPIRATORY TRACT (LARYNX, PHARYNX, TRACHEA): PAPILLOMA, EPIDERMOID CARCINOMA, PAPILLARY POLYP, FORESTOMACH: PAPILLOMA); “active; positive” (Species: MONKEY, Route: ORAL, Tumor Site: Type of Lesion: LIVER); “active; positive” (Species: MOUSE, Route: INTRAPERITONEAL, Tumor Site: Type of Lesion: LUNG); “active; positive” (Species: MOUSE, Route: ORAL, Tumor Site: Type of Lesion: FORESTOMACH, LIVER, LUNG, Tumor Site: Type of Lesion: FORESTOMACH, LIVER, LUNG); “active; positive” (Species: RAT, Route: INTRAVENOUS, Tumor Site: Type of Lesion: ESOPHAGUS, PHARYNX). Also, the carcinogen call (Species: RAT, Route: ORAL, Tumor Site: Type of Lesion: ESOPHAGUS, LIVER) is “active; positive”; the carcinogen call (Species: RAT, Route: SUBCUTANEOUS, Tumor Site: Type of Lesion: ESOPHAGUS, NASAL CAVITY) is “active; positive”; the carcinogen call (Species: RAT, Strain/Sex: F344/FEMALE, Route: ORAL, Dose: 0.9 MILLIMOLAR SOLUTION (100 MG/L) IN DRINKING WATER 5/WK FOR 28 WK, Tumor Site: Type of Lesion: ESOPHAGUS: PAPILLOMA, CARCINOMA) is “active; positive”.
